Reference: patent publication US20250263753A1, “BRIDGED CYCLE-BASED INHIBITORS OF DNA-DEPENDENT PROTEIN KINASE AND COMPOSITIONS AND APPLICATION IN GENE EDITING” (Juno Therapeutics, Inc., priority 2023, published 2025)
Like-named read-outs stand apart in the source and are kept apart here.

How the values were obtained:
[1] = target: PI3Kβ (Homo sapiens (Human), UniProt P42338); assay: PI3Kβ biochemical assay (Reaction Biology ADP-Glo)
Experimental: Phosphoinositide 3-kinase R (PI3KP) Biochemical Assay using Reaction Biology's ADP-Glo Assay Platform:
Step 1: Lipid kinases: Reaction Biology Corporation (RBC) currently offers lipid kinases in ADP-Glo format
Step 2: Assay Description Assay principle: The kinase reactions utilize ATP and produce ADP as a byproduct. The ADP production is quantified by ADP-Glo luminescence detection. This is a 3-step reaction: First, the kinase reaction with lipid substrate is carried out in the presence of ATP, and the reaction is quenched and depleted remaining ATP with ADP-Glo™ reagent, and then finally ADP is converted to ATP which is measured using a luciferase/luciferin reaction.
Step 3: Assay Procedure: 1. Prepare kinase in freshly prepared Reaction Buffer, kinase without substrate is delivered to background wells; 2. Deliver substrate into the kinase solution and gently mix, deliver to assay wells; 3. Deliver compounds in 100% DMSO into the kinase reaction mixture by Acoustic technology (Echo550; nanoliter range), incubate for 20 min at room temperature; 4. Deliver ATP into the reaction mixture to initiate the reaction; 5. Incubate for 60 min at 30° C.; 6. Quench the reaction with ADP-Glo reagent and incubate for 40 min; 7. Add Detection Mixture and incubate for 30 min; 8. Measure luminescence.
Step 4: Data Analysis: The luminescence is converted into M ADP production based on ADP standard curves. The nonlinear regression to obtain the standard curve and IC50 values are performed using Graphpad Prism software.

[2] = target: DNA-PK (Homo sapiens (Human), UniProt P78527); assay: DNA-PK biochemical assay (Reaction Biology HotSpot kinase assay, 10 μM ATP)
Method in brief: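 Radiometric 33P-ATP kinase reaction in 20 mM Hepes pH 7.5, 10 mM MgCl2, 1 mM EGTA, 2 mM DTT, 1% DMSO. Compound preincubated with kinase and substrate 20 min at room temperature, then reaction run 2 h at room temperature after ATP addition. Activity read by P81 filter binding.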

[3] = target: ATM (Homo sapiens (Human), UniProt Q13315); assay: ATM biochemical assay (Reaction Biology HTRF kinase assay, 10 μM ATP)
Method in brief: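 HTRF kinase assay with N-terminal GST-tagged human p53 (aa2-393) substrate, 10 μM ATP, in 50 mM Hepes pH 7.5, 10 mM MnCl2, 1% DMSO. Enzyme preincubated with compound 30 min, reaction 2 h at room temperature. pS15 phosphorylation read by Eu-cryptate anti-p53-pS15/anti-GST-d2 HTRF (615/665 nm).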

[4] = target: PI3Kα (His-PIK3CA/PIK3R1, p110 alpha/p85 alpha) (Homo sapiens (Human), UniProt P42336); assay: PI3Kα biochemical assay (HTRF/FRET probe); assay type: binding
PI3Kα (His-PIK3CA/PIK3R1, p110 alpha/p85 alpha), sequence (P42336 whole entry, species assumed): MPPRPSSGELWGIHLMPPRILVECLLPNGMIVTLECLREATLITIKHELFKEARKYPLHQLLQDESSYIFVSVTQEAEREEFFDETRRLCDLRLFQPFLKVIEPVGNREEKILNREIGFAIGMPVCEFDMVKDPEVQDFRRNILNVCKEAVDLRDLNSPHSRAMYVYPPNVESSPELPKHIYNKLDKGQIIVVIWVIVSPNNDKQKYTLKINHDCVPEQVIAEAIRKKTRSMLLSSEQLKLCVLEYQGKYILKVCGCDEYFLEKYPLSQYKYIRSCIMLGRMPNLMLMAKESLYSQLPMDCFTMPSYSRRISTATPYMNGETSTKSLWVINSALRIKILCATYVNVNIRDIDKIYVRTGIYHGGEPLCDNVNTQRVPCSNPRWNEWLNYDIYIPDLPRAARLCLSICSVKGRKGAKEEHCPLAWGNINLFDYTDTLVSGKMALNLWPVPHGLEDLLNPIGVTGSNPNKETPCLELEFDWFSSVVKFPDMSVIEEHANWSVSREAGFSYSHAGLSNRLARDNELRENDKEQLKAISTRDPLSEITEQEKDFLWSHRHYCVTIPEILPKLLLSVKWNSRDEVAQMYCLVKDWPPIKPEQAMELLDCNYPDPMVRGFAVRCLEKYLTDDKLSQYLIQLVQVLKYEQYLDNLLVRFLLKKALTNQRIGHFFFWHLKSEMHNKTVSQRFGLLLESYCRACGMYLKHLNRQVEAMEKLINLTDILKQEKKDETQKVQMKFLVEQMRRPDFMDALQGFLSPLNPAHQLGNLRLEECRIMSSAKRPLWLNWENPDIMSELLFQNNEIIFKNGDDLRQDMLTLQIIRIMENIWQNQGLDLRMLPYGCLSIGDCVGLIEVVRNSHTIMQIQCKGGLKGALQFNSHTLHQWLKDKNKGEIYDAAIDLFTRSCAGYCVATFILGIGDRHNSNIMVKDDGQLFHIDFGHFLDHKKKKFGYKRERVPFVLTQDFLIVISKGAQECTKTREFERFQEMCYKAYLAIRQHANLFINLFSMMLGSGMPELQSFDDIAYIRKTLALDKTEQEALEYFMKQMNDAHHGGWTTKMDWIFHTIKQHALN
PI3Kα (His-PIK3CA/PIK3R1, p110 alpha/p85 alpha), sequence (P27986 whole entry partner, species assumed): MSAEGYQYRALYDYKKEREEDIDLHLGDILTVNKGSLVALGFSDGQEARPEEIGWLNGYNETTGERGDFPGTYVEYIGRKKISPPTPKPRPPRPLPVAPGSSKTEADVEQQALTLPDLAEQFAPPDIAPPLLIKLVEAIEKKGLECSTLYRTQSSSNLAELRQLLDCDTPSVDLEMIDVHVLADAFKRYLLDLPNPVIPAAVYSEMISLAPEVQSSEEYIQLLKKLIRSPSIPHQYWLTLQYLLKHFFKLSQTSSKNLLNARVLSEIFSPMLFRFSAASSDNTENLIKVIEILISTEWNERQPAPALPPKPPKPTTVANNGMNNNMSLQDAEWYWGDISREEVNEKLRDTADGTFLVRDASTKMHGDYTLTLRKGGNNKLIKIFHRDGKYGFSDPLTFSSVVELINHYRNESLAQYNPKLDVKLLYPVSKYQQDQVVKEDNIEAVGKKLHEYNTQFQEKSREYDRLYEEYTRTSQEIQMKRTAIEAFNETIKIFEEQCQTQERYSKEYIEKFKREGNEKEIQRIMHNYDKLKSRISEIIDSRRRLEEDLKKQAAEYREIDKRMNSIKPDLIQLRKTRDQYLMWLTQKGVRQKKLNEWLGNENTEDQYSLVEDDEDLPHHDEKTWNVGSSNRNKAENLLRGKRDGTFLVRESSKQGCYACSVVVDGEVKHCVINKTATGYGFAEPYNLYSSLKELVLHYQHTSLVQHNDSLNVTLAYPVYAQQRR
Experimental: Phosphoinositide 3-kinase α (PI3Kα) Biochemical Assay: A solution was prepared containing 0.2 nM Anti-HIS-Terbium (Cisbio, 64CUSTAZU), 3.7 nM designed-probe and 1.0 nM His-PIK3CA/PIK3R1 (p110 alpha/p85 alpha) in FRET Buffer (20 mM HEPES, 10 mM MgCl2, 0.015% Brij-35, 4 mM DTT, 0.05 mg/mL BSA).

[5] = target: PI3Kδ (His-PIK3CD/PIK3R1, p110 delta/p85 alpha) (Homo sapiens (Human), UniProt O00329); assay: PI3Kδ biochemical assay (HTRF/FRET probe); assay type: binding
PI3Kδ (His-PIK3CD/PIK3R1, p110 delta/p85 alpha), sequence (O00329 whole entry, species assumed): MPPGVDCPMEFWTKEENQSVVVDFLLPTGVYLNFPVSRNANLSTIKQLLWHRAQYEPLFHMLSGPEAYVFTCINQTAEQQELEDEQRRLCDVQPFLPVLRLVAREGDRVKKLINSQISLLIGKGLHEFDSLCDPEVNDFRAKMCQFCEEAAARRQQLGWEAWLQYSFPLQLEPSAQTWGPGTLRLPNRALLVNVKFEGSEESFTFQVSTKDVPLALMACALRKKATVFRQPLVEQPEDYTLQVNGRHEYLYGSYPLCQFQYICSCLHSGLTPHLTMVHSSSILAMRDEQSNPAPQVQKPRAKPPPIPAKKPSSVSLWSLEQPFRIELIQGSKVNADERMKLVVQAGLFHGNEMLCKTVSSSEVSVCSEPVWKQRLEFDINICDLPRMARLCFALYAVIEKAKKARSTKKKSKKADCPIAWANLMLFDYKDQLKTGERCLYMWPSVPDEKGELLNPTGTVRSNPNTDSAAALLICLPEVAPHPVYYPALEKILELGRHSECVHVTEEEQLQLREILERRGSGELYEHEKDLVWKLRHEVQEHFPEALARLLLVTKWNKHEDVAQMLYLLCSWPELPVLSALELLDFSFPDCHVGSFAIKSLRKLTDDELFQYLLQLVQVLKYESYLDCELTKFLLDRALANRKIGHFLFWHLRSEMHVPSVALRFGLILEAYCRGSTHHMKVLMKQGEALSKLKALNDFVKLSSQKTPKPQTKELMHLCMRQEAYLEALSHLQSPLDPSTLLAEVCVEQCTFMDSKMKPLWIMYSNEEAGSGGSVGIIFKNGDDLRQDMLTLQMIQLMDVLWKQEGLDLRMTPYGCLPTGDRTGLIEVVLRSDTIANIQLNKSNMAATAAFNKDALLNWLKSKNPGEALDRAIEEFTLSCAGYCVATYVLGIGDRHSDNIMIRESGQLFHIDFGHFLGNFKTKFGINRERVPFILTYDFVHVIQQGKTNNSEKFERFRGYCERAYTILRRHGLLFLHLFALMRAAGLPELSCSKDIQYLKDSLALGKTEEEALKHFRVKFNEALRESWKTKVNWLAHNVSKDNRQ
PI3Kδ (His-PIK3CD/PIK3R1, p110 delta/p85 alpha), sequence (P27986 whole entry partner, species assumed): as the sequence (P27986 whole entry partner, species assumed) above
Experimental: Phosphoinositide 3-kinase (PI3K) Biochemical Assay: A solution was prepared containing 0.2 nM Anti-HIS-Terbium (Cisbio, 64CUSTAZU), 40 nM designed-probe and 1.0 nM His-PIK3CD/PIK3R1 (p110 delta/p85 alpha) in FRET Buffer (20 mM HEPES, 10 mM MgCl2, 0.015% Brij-35, 4 mM DTT, 0.05 mg/mL BSA).

[6] = read-out: DNA-PK HotSpot 10 μM ATP IC50, class symbol

PI3Kβ, sequence (P42338 whole entry): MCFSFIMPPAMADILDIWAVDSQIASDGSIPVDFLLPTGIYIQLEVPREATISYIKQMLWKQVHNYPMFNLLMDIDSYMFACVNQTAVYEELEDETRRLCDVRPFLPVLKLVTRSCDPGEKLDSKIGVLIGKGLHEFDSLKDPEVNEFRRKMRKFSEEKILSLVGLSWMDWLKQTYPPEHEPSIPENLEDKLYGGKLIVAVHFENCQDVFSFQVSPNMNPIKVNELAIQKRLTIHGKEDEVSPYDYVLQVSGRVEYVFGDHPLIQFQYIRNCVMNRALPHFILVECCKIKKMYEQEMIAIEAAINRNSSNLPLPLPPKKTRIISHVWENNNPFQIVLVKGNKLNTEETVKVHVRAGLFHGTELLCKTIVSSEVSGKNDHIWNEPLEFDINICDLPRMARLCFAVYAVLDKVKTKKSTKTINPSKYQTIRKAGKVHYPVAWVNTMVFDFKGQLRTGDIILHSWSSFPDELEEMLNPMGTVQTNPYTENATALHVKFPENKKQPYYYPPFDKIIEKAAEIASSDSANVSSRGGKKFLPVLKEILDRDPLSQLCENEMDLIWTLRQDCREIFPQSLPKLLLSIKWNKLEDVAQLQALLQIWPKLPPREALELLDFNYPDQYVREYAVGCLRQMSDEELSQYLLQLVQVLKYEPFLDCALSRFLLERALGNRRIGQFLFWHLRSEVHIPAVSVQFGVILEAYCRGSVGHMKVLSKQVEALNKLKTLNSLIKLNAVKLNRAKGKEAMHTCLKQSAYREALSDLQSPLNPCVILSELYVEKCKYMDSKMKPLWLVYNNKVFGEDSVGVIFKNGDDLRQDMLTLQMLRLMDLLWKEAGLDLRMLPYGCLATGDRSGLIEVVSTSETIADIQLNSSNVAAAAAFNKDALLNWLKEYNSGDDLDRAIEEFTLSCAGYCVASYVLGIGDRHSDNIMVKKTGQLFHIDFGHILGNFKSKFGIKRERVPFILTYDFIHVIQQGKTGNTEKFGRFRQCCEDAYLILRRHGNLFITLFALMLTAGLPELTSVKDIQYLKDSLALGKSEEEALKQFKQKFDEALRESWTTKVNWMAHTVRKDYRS
PI3Kβ, sequence (P27986 whole entry partner): as the sequence (P27986 whole entry partner, species assumed) above

| IC50 ([1]; class symbol) [nM] | IC50 [2, 6] [nM] | IC50 ([3]; class symbol) [nM] | IC50 ([4]; class symbol) [nM] | IC50 ([5]; class symbol) [nM] | IC50 ([1]; numeric value) [nM] | IC50 ([2]; class symbol) [nM] | IC50 ([2]; read-out: DNA-PK HotSpot 10 μM ATP IC50, numeric value) [nM] | IC50 ([3]; read-out: ATM HTRF 10 μM ATP IC50, numeric value) [nM] | IC50 ([4]; numeric value) [nM] | IC50 ([5]; numeric value) [nM] | IC50 ([3]; read-out: ATM HTRF 10 μM ATP IC50, class symbol) [nM] | SMILES |
| --- | --- | --- | --- | --- | --- | --- | --- | --- | --- | --- | --- | --- |
| ≥ 1000 | < 1 | 100 to 1000 | ≥ 1000 | ≥ 1000 |  |  |  |  |  |  |  | Cc1cc2ncnn2cc1Nc1ncc2c(n1)n(C13CC(F)(C1)C3)c(=O)n2C [Compound 12, 9-(3-fluorobicyclo[1.1.1]pentan-1-yl)-7-methyl-2-((7-methyl-[1,2,4]triazolo[1,5-a]pyridin-6-yl)amino)-7,9-dihydro-8H-purin-8-one] |
| 100 to 1000 | < 1 | 10 to 100 | 100 to 1000 | ≥ 1000 |  |  |  |  |  |  |  | Cc1cc2ncnn2cc1Nc1ncc2c(n1)n(C1CC3CCC1CC3)c(=O)n2C (stereo not shown) [Compound 42, 9-((1s,4s)-bicyclo[2.2.2]octan-2-yl)-7-methyl-2-((7-methyl-[1,2,4]triazolo[1,5-a]pyridin-6-yl)amino)-7,9-dihydro-8H-purin-8-one] |
| 100 to 1000 | < 1 | 10 to 100 | 100 to 1000 | ≥ 1000 |  |  |  |  |  |  |  | Cc1cc2ncnn2cc1Nc1ncc2c(n1)n([C@H]1C[C@@H]3CC[C@H]1C3)c(=O)n2C [Compound 45, 9-((1S,2S,4R)-bicyclo[2.2.1]heptan-2-yl)-7-methyl-2-((7-methyl-[1,2,4]triazolo[1,5-a]pyridin-6-yl)amino)-7,9-dihydro-8H-purin-8-one] |
| 100 to 1000 |  | 10 to 100 | 100 to 1000 | ≥ 1000 | 658 | < 1 | 0.07 | 88 | 128 | 1830 |  | Cc1cc2ncnn2cc1Nc1ncc2c(n1)n(C13CCC(O)(CC1)C3)c(=O)n2C [Compound 1, 9-(4-hydroxybicyclo[2.2.1]heptan-1-yl)-7-methyl-2-((7-methyl-[1,2,4]triazolo[1,5-a]pyridin-6-yl)amino)-7,9-dihydro-8H-purin-8-one] |
| ≥ 1000 | < 1 | 100 to 1000 | ≥ 1000 | ≥ 1000 |  |  |  |  |  |  |  | Cc1cc2c(cc1Nc1ncc3c(n1)n(C14CCC(O)(CC1)C4)c(=O)n3C)OCO2 [Compound 2, 9-(4-hydroxybicyclo[2.2.1]heptan-1-yl)-7-methyl-2-((6-methylbenzo[d][1,3]dioxol-5-yl)amino)-7,9-dihydro-8H-purin-8-one] |
|  | < 1 | 1 to 10 | 10 to 100 | ≥ 1000 |  |  |  |  |  |  |  | Cc1cc2nsnc2cc1Nc1ncc2c(n1)n(C13CCC(O)(CC1)C3)c(=O)n2C [Compound 3, 9-(4-hydroxybicyclo[2.2.1]heptan-1-yl)-7-methyl-2-((6-methylbenzo[c][1,2,5]thiadiazol-5-yl)amino)-7,9-dihydro-8H-purin-8-one] |
|  |  | 100 to 1000 | 100 to 1000 | 10 to 100 |  | 1 to 10 |  |  |  |  |  | Cc1cc2ncnn2cc1Nc1ncc2c(n1)n(C13CCC(O)(CC1)C3)c(=S)n2C [Compound 31, 9-(4-hydroxybicyclo[2.2.1]heptan-1-yl)-7-methyl-2-((7-methyl-[1,2,4]triazolo[1,5-a]pyridin-6-yl)amino)-7,9-dihydro-8H-purine-8-thione] |

Further lines, the molecule ahead of its results:

| SMILES | IC50 ([1]; class symbol) [nM] | IC50 [2, 6] [nM] | IC50 ([3]; class symbol) [nM] | IC50 ([4]; class symbol) [nM] | IC50 ([5]; class symbol) [nM] | IC50 ([1]; numeric value) [nM] | IC50 ([2]; class symbol) [nM] | IC50 ([2]; read-out: DNA-PK HotSpot 10 μM ATP IC50, numeric value) [nM] | IC50 ([3]; read-out: ATM HTRF 10 μM ATP IC50, numeric value) [nM] | IC50 ([4]; numeric value) [nM] | IC50 ([5]; numeric value) [nM] | IC50 ([3]; read-out: ATM HTRF 10 μM ATP IC50, class symbol) [nM] |
| --- | --- | --- | --- | --- | --- | --- | --- | --- | --- | --- | --- | --- |
| Cc1cc2ncccc2cc1Nc1ncc2c(n1)n([C@H]1C[C@@H]3CC[C@H]1C3)c(=O)n2C [Compound 44, 9-((1S,2S,4R)-bicyclo[2.2.1]heptan-2-yl)-7-methyl-2-((7-methylquinolin-6-yl)amino)-7,9-dihydro-8H-purin-8-one] | 100 to 1000 | < 1 | 1 to 10 | 10 to 100 | 100 to 1000 |  |  |  |  |  |  |  |
| Cc1cc2ncccc2cc1Nc1ncc2c(n1)n(C13CC(F)(C1)C3)c(=O)n2C [Compound 11, 9-(3-fluorobicyclo[1.1.1]pentan-1-yl)-7-methyl-2-((7-methylquinolin-6-yl)amino)-7,9-dihydro-8H-purin-8-one] | 100 to 1000 | < 1 | 10 to 100 | 100 to 1000 | ≥ 1000 |  |  |  |  |  |  |  |
| COC12CCC(n3c(=O)n(C)c4cnc(Nc5cc6c(cc5C)OCO6)nc43)(CC1)C2 [Compound 7, 9-(4-methoxybicyclo[2.2.1]heptan-1-yl)-7-methyl-2-((6-methylbenzo[d][1,3]dioxol-5-yl)amino)-7,9-dihydro-8H-purin-8-one] | ≥ 1000 | < 1 | 100 to 1000 | 100 to 1000 | ≥ 1000 |  |  |  |  |  |  |  |
| Cc1cc2nsnc2cc1Nc1ncc2c(C)nn(C34CC(C3)C4)c2n1 [Compound 50, N-(1-(bicyclo[1.1.1]pentan-1-yl)-3-methyl-1H-pyrazolo[3,4-d]pyrimidin-6-yl)-6-methylbenzo[c][1,2,5]thiadiazol-5-amine] |  | < 1 | 10 to 100 | ≥ 1000 | ≥ 1000 |  |  |  |  |  |  |  |
| Cc1cc2nnccc2cc1Nc1ncc2c(n1)N(C13CCC(O)(CC1)C3)CC(=O)N2C [Compound 61, 8-(4-hydroxybicyclo[2.2.1]heptan-1-yl)-5-methyl-2-((7-methylcinnolin-6-yl)amino)-7,8-dihydropteridin-6(5H)-one] |  | < 1 | 1 to 10 | 10 to 100 | 100 to 1000 |  |  |  |  |  |  |  |
| COC12CCC(n3c(=O)n(C)c4cnc(Nc5cc6nsnc6cc5C)nc43)(C1)C2 [Compound 30, 9-(4-methoxybicyclo[2.1.1]hexan-1-yl)-7-methyl-2-((6-methylbenzo[c][1,2,5]thiadiazol-5-yl)amino)-7,9-dihydro-8H-purin-8-one] |  | < 1 | 100 to 1000 | 100 to 1000 | ≥ 1000 |  |  |  |  |  |  |  |
| COC12CCC(n3c(=O)n(C)c4cnc(Nc5cc6c(cc5C)OCO6)nc43)(CC1)CC2 [Compound 26, 9-(4-methoxybicyclo[2.2.2]octan-1-yl)-7-methyl-2-((6-methylbenzo[d][1,3]dioxol-5-yl)amino)-7,9-dihydro-8H-purin-8-one] |  | < 1 | 10 to 100 | 100 to 1000 | ≥ 1000 |  |  |  |  |  |  |  |
| Cc1cc2c(cc1Nc1ncc3c(n1)n(C14CC(C(F)(F)F)(C1)C4)c(=O)n3C)OCO2 [Compound 19, 7-methyl-2-((6-methylbenzo[d][1,3]dioxol-5-yl)amino)-9-(3-(trifluoromethyl)bicyclo[1.1.1]pentan-1-yl)-7,9-dihydro-8H-purin-8-one] |  |  | 100 to 1000 | ≥ 1000 | ≥ 1000 |  | 1 to 10 |  |  |  |  |  |
| Cc1cc2c(cc1Nc1ncc3c(n1)n(C14CC(F)(C1)C4)c(=S)n3C)OCO2 [Compound 35, 9-(3-fluorobicyclo[1.1.1]pentan-1-yl)-7-methyl-2-((6-methylbenzo[d][1,3]dioxol-5-yl)amino)-7,9-dihydro-8H-purine-8-thione] |  |  |  | ≥ 1000 | ≥ 1000 |  | 100 to 1000 |  |  |  |  | ≥ 1000 |
| Cc1cc2nccnc2cc1Nc1ncc2c(n1)N(C13CCC(O)(CC1)C3)CC(=O)N2C [Compound 59, 8-(4-hydroxybicyclo[2.2.1]heptan-1-yl)-5-methyl-2-((7-methylquinoxalin-6-yl)amino)-7,8-dihydropteridin-6(5H)-one] |  | < 1 | 10 to 100 | 100 to 1000 | 100 to 1000 |  |  |  |  |  |  |  |
| COC12CCC(N3CC(=O)N(C)c4cnc(Nc5cc6nsnc6cc5C)nc43)(CC1)C2 [Compound 64, 8-(4-methoxybicyclo[2.2.1]heptan-1-yl)-5-methyl-2-((6-methylbenzo[c][1,2,5]thiadiazol-5-yl)amino)-7,8-dihydropteridin-6(5H)-one] |  | < 1 | 1 to 10 | 10 to 100 | 100 to 1000 |  |  |  |  |  |  |  |
